Assay results from US20260226048A1, “MULTI-CYCLIC IRAK AND FLT3 INHIBITING COMPOUNDS AND USES THEREOF” (CHILDREN'S HOSPITAL MEDICAL CENTER, priority 2023, published 2026).
pKd: −log10 of the molar value.

How the values were obtained:
[1] = biological target: T1, FLT3 N841I (Homo sapiens, UniProt P36888, N841I); test: DiscoverX KINOMEscan competition binding assay, FLT3 N841I; settings: 11-point 3-fold dilution
T1 construct: purchased DiscoverX (KINOMEscan); host or cells: E. coli BL21-derived host (T7 phage) or HEK-293
T1 sequence (P36888 27-993 N841I): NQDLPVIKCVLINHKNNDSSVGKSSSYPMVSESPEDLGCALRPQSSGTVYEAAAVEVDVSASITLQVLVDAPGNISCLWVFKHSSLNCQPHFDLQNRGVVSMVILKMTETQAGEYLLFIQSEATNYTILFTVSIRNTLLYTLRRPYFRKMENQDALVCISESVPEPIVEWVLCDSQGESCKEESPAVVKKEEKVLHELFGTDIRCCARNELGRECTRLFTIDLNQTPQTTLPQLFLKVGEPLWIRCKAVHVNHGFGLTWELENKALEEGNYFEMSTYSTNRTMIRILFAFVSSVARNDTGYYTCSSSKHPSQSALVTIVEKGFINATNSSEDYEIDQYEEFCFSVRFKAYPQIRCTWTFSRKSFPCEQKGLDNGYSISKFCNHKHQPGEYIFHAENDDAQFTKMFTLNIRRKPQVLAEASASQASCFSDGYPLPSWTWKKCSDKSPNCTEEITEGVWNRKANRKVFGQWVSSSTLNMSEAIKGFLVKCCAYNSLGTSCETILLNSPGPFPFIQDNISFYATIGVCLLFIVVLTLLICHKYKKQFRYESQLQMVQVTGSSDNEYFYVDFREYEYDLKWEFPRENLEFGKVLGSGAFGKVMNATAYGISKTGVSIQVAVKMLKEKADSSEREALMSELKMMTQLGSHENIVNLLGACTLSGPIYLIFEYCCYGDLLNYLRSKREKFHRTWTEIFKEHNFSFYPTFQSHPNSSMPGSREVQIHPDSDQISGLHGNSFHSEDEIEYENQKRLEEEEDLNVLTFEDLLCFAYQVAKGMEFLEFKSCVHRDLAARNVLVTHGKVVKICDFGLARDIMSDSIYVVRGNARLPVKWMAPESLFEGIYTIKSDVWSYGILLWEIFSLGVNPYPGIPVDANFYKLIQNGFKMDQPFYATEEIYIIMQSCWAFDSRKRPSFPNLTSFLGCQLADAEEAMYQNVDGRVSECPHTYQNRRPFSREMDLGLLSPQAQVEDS
Text: (§1) […]. […] As a result, the data report thermodynamic interaction affinities (Kd values), rather than IC50 values that are dependent on ATP concentrations. The assay uses a DNA-tagged version of the protein kinase, and an immobilized ligand bound to a solid support. Compounds that directly or indirectly prevent kinase binding to the immobilized ligand reduce the amount of kinase captured on the solid support, which is detected using an ultra-sensitive qPCR method. Affinity constants reported from the assay have been reported to be independent of the immobilized ligand used that is coupled to the solid support (See supplemental information in Fabian, M. A. et. al., (2005) Nat. Biotechnol. 23, 329-336; Wodicka, L. M. et. al., (2010) Chem. Biol. 17, 1241-1249.)
(§2) Kinase-tagged T7 phage strains were prepared in an E. coli host derived from the BL21 strain. E. coli were grown to log-phase and infected with T7 phage and incubated with shaking at 32° C. until lysis. The lysates were centrifuged and filtered to remove cell debris. The remaining kinases were produced in HEK-293 cells and subsequently tagged with DNA for qPCR detection. Streptavidin-coated magnetic beads were treated with biotinylated small molecule ligands for 30 minutes at room temperature to generate affinity resins for kinase assays. The liganded beads were blocked with excess biotin and washed with blocking buffer (SeaBlock (Pierce), 1% BSA, 0.05% Tween 20, 1 mM DTT) to remove unbound ligand and to reduce non-specific binding. […] Test compounds were prepared as 111× stocks in 100% DMSO. Kds were determined using an 11-point 3-fold compound dilution series with three DMSO control points. All compounds for Kd measurements are distributed by acoustic transfer (non-contact dispensing) in 100% DMSO. The compounds were then diluted directly into the assays such that the final concentration of DMSO was 0.9%. All reactions were performed in polypropylene 384-well plates. Each was a final volume of 0.02 mL. […] The kinase concentration in the eluates was measured by qPCR.
(§3) Binding constants (Kds) were calculated with a standard dose-response curve using the Hill equation. The Hill Slope was set to −1. Curves were fitted using a non-linear least square fit with the Levenberg-Marquardt algorithm.

[2] = biological target: T2, FLT3 ITD, D835V (Homo sapiens, UniProt P36888, D835V, form not given); test: DiscoverX KINOMEscan competition binding assay, FLT3 ITD, D835V; settings: 11-point 3-fold dilution
T2 construct: fused on or other part: DNA tag for qPCR detection (kinase-tagged T7 phage, or made in HEK-293 cells and then tagged with DNA)
T2 sequence (P36888 1-993 D835V): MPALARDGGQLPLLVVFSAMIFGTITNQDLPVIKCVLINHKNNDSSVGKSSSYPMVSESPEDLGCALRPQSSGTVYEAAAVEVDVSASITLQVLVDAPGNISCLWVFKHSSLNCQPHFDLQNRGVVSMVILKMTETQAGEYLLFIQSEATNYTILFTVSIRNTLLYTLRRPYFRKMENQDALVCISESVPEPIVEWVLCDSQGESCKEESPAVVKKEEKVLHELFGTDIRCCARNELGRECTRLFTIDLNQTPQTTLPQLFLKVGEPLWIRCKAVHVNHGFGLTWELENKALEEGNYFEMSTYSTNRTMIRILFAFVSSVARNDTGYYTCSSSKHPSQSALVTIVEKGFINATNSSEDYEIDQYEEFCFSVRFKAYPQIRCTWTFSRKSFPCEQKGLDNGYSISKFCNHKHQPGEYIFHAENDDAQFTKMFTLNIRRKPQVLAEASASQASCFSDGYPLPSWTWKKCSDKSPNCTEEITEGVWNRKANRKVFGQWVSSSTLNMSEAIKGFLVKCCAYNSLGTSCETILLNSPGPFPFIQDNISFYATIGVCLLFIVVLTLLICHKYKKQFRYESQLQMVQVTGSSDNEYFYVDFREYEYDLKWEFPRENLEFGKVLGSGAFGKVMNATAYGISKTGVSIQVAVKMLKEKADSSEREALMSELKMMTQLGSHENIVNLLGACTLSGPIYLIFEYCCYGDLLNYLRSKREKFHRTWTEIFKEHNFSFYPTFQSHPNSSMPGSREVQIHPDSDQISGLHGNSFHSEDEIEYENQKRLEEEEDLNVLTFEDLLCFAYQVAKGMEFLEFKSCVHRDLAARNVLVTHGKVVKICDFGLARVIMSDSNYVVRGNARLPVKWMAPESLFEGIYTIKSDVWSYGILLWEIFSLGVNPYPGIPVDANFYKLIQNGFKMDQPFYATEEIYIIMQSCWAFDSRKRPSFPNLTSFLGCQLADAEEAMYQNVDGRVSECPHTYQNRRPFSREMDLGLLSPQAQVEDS
Text: as §1, §2, §3

Compound	pKd [1]	pKd [2]
COc1cc2ncc(-c3nc(N[C@H]4CNCC[C@@H]4F)ncc3F)n2nc1C1CC1 [Compound 1a, 4-(6-cyclopropyl-7-methoxyimidazo[1,2-b]pyridazin-3-yl)-5-fluoro-N-((3S,4S)-4-fluoropiperidin-3-yl)pyrimidin-2-amine]	> 9.77	> 9.77
FC(F)COc1cc2ncc(-c3ccnc(N[C@H]4CNCC[C@@H]4F)n3)n2nc1C1CC1 [Compound 4a, 4-(6-cyclopropyl-7-(2,2-difluoroethoxy)imidazo[1,2-b]pyridazin-3-yl)-N-((3 S,4S)-4-fluoropiperidin-3-yl)pyrimidin-2-amine]	9.06	> 9.77
COc1cc2ncc(-c3nc(N[C@H]4CNCC[C@@H]4F)ncc3F)n2nc1C(C)(C)O [Compound 45a, 2-(3-(5-fluoro-2-(((3S,4S)-4-fluoropiperidin-3-yl)amino)pyrimidin-4-yl)-7-methoxyimidazo[1,2-b]pyridazin-6-yl)propan-2-ol]	8.96	9.64
CC(C)(O)c1ccc2ncc(-c3nc(N[C@H]4CNCC[C@@H]4F)ncc3F)n2c1 [Compound 46a, 2-(3-(5-fluoro-2-(((3S,4S)-4-fluoropiperidin-3-yl)amino)pyrimidin-4-yl)imidazo[1,2-a]pyridin-6-yl)propan-2-ol]	8.49	> 9.77
COc1cc2ncc(-c3nc(N[C@H]4CNCC[C@@H]4F)ncc3F)n2nc1C1COC1 [Compound 92a, 5-fluoro-N-((3S,4S)-4-fluoropiperidin-3-yl)-4-(7-methoxy-6-(oxetan-3-yl)imidazo[1,2-b]pyridazin-3-yl)pyrimidin-2-amine]	9.74	> 9.77
CC(C)(O)c1cn2c(-c3nc(N[C@H]4CNCC[C@@H]4F)ncc3F)cnc2cn1 [Compound 100a, 2-(3-(5-fluoro-2-(((3S,4S)-4-fluoropiperidin-3-yl)amino)pyrimidin-4-yl)imidazo[1,2-a]pyrazin-6-yl)propan-2-ol]	7.80	9.72
COc1cc2ncc(-c3nc(N[C@H]4CNCC[C@@H]4F)ncc3F)n2nc1N1CCCS1(=O)=O [Compound 112a, 2-(3-(5-fluoro-2-(((3S,4S)-4-fluoropiperidin-3-yl)amino)pyrimidin-4-yl)-7-methoxyimidazo[1,2-b]pyridazin-6-yl)isothiazolidine 1,1-dioxide]	9.70	> 9.77
